From ChEMBL document CHEMBL1201862, “PubChem BioAssay data set” (2004)
Calls of active or inactive are those of the source.

Tests used:
[1] = system: Streptococcus sp. 'group A'; experiment: Streptococcus pyogenes SK(-)GAS viability under kanamycin – luminescence, BacTiterGlo, confirmation, counter-screen for streptokinase expression inhibitor project, dose response (AID 1900); assay type: functional, organism-based
Beta-galactosidase [2] = target: T1, Beta-galactosidase (Escherichia coli, UniProt Q8VNN2); assay type: functional
[3] = target: T2, Type-1 angiotensin II receptor (Homo sapiens, UniProt P30556); experiment: antagonism of angiotensin II type 1 receptor – cell-based, uHTS hits, selectivity assay for APJ receptor antagonist project, dose response (AID 463214); assay type: functional;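 note: antagonist potency against angiotensin II stimulated AT1 response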
T2 sequence (P30556 whole entry): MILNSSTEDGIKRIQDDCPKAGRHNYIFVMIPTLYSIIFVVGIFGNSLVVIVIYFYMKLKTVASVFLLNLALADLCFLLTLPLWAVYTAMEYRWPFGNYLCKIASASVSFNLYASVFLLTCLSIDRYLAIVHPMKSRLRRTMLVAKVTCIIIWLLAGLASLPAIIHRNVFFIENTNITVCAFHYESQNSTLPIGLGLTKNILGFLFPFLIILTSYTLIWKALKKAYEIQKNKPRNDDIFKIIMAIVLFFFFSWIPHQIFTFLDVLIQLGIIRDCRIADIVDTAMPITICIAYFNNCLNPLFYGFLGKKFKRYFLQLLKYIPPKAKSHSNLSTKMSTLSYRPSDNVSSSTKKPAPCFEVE

[4] = target: T3, Delta-type opioid receptor (Homo sapiens, UniProt P41143); experiment: HTS Image-Based Screen for Antagonists of the DOR Receptor. [Related pubchem assays (depositor defined):AID1777, AID1785, AID1786, AID2133]; assay type: functional
[5] = target: T4, Kappa-type opioid receptor (Homo sapiens, UniProt P41145); assay type: functional
[6] = target: E3 ubiquitin-protein ligase Mdm2 (Homo sapiens, UniProt Q00987); experiment: MDM2-luc reporter signal enhancers, multi-concentration potency testing, MDM2 ubiquitin-protein ligase inhibitor program, whole-cell format, luminescence detection, 384-well microplate (AID 1394); assay type: functional;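 note: MDM2 E3 inhibitors raise luminescence so EC50 is for signal enhancement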
Streptococcus = experiment: GAS UMAA2166 growth inhibition – luminescence, BacTiterGlo, counter-screen for streptokinase expression inhibitor project, dose response (AID 1915); assay type: functional, organism-based;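 note: potency for reduction of bacterial viability or growth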
Mu-type opioid receptor = Mu-type opioid receptor (Homo sapiens, UniProt P35372); experiment: HTS Image-Based Screen for Agonists of the MOR Receptor. [Related pubchem assays (depositor defined):AID1777, AID1785, AID1786, AID2133]; assay type: functional;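 note: imaging of beta-arrestin GFP recruitment into spots after receptor activation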
[7] = bead-based luminescence quenchers, dual-tagged ARNT – biochemical, AlphaScreen, cherry-pick, artefact control for ARNT-TACC3 interaction inhibitor project, dose response (AID 651705); assay type: functional;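 note: AlphaScreen bead proximity signal that flags compounds interfering with the detection technology; potency reflects signal decrease which marks the compound as an assay artifact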
Beta-galactosidase [8] = target: T1, Beta-galactosidase; experiment: PubChem AID 485352; assay type: functional
[9] = Trypanosoma cruzi growth suppression in host cells – NIH3T3 host cells, beta-gal luminescence, confirmation (AID 2044); assay type: functional, cell-based;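 note: intracellular parasites grown in NIH/3T3 mouse fibroblasts as host cells; luminescent beta-galactosidase reporter signal from transgenic T. cruzi replicating inside host cells; inhibitors lower the luminescence signal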
[10] = target: T3, Delta-type opioid receptor; experiment: HTS Image-Based Screen for Agonists of the DOR Receptor. [Related pubchem assays (depositor defined):AID1777, AID1786, AID2133]; assay type: functional
Nonstructural protein 1 = Nonstructural protein 1 (Influenza A virus, UniProt Q194T2); assay type: functional, Influenza A virus (A/California/07/2009(H1N1))
[11] = target: T4, Kappa-type opioid receptor; assay type: functional; remark: listed apart in the source
[12] = NIH3T3 cell viability loss – ATP luminescence, mouse fibroblasts, counter-screen, dose response (AID 2010); assay type: functional, cell-based;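 note: cells exposed to compound for about 90 hours before reading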
[13] = target: T5, Ubiquitin-conjugating enzyme E2 N (Homo sapiens, UniProt P61088); assay type: functional;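 note: Dose-response confirmation in a TR-FRET assay detecting UBC13-driven polyubiquitin chain formation, inhibition measured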
T5 sequence (P61088 whole entry): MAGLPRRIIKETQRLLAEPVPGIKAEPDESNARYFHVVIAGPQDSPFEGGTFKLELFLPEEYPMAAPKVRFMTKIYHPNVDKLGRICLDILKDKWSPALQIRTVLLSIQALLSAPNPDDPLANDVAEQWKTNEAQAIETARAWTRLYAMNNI

[14] = target: T6, Heat shock factor protein 1 (Mus musculus, UniProt P38532); experiment: enhancement of HSF1-driven luciferase signal – cell-based, NIH3T3, luminescence, dose retest, confirmation (AID 435004); assay type: functional;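 note: stress induced by proteasome inhibitor MG132 added 30 min after compound; luciferase reporter driven by HSF1 response element in NIH3T3 cells; actives raise luminescence as potentiators of the MG132 stress response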
T6 sequence (P38532 whole entry): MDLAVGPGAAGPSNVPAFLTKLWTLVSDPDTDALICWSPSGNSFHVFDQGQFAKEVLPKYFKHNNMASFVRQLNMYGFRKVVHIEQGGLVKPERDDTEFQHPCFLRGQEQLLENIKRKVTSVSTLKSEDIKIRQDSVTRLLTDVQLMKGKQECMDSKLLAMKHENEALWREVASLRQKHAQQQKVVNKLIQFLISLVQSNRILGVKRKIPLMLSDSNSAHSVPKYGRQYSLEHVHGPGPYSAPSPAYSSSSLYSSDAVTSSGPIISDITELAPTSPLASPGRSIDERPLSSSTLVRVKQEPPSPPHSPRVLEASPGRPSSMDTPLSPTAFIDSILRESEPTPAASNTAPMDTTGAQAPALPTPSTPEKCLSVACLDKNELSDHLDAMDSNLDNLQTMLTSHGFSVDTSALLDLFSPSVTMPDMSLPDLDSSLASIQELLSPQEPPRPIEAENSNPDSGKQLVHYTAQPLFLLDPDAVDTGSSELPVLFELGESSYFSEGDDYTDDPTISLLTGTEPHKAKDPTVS

[15] = Luminescence Cell-Based Dose Confirmation HTS to Identify Inhibitors of Polyadenylation.; assay type: functional
[16] = rise of 4N DNA cells, HeLa – IC50, dose response (AID 1117351); assay type: functional, cell-based
[17] = target: T7, Alkaline phosphatase, tissue-nonspecific isozyme (Homo sapiens, UniProt P05186); experiment: TNAP enzyme inhibition by screening hits, dose response, selectivity assay for mouse IAP inhibitor project, biochemical, human TNAP, uHTS hits (AID 488906); assay type: functional
T7 sequence (P05186 whole entry): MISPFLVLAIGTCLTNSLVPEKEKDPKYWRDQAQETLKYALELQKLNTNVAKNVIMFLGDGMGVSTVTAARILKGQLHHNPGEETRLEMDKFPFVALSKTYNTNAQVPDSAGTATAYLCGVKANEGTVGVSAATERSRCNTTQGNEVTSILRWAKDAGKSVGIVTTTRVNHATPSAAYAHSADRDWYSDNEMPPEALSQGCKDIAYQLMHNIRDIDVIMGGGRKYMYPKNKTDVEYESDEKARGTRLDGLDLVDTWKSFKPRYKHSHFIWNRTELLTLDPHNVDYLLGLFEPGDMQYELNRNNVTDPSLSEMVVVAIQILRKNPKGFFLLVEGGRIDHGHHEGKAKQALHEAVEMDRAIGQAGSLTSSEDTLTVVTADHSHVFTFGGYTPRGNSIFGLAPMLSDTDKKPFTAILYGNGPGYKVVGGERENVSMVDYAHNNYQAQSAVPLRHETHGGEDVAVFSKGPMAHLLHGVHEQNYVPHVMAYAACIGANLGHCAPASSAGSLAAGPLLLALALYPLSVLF

[18] = CellTiter-Glo luminescence survival assay, SW480 colon tumor line, concentration-response curve, half-maximal inhibitory concentration (AID 1117338); assay type: functional
[19] = target: FAD-linked sulfhydryl oxidase ALR (Homo sapiens, UniProt P55789); experiment: ALR-catalysed DTT oxidation blockers – biochemical, H2O2 detection, luminescence, cherry-pick, dose response (AID 493248)
Exodeoxyribonuclease V = Exodeoxyribonuclease V (Escherichia coli (strain K12), UniProt P04993+P07648+P08394); experiment: RecBCD inhibition via phage-restricted bacterial growth – absorbance, V66 E. coli, mutant T4 phage, counter-screen for AddAB inhibitor project, dose response (AID 492957); assay type: functional, cell-based, Escherichia coli str. K-12 substr. MG1655
[20] = target: T8, Apoptotic protease-activating factor 1 (Homo sapiens, UniProt O14727); assay type: functional
T8 sequence (O14727 whole entry): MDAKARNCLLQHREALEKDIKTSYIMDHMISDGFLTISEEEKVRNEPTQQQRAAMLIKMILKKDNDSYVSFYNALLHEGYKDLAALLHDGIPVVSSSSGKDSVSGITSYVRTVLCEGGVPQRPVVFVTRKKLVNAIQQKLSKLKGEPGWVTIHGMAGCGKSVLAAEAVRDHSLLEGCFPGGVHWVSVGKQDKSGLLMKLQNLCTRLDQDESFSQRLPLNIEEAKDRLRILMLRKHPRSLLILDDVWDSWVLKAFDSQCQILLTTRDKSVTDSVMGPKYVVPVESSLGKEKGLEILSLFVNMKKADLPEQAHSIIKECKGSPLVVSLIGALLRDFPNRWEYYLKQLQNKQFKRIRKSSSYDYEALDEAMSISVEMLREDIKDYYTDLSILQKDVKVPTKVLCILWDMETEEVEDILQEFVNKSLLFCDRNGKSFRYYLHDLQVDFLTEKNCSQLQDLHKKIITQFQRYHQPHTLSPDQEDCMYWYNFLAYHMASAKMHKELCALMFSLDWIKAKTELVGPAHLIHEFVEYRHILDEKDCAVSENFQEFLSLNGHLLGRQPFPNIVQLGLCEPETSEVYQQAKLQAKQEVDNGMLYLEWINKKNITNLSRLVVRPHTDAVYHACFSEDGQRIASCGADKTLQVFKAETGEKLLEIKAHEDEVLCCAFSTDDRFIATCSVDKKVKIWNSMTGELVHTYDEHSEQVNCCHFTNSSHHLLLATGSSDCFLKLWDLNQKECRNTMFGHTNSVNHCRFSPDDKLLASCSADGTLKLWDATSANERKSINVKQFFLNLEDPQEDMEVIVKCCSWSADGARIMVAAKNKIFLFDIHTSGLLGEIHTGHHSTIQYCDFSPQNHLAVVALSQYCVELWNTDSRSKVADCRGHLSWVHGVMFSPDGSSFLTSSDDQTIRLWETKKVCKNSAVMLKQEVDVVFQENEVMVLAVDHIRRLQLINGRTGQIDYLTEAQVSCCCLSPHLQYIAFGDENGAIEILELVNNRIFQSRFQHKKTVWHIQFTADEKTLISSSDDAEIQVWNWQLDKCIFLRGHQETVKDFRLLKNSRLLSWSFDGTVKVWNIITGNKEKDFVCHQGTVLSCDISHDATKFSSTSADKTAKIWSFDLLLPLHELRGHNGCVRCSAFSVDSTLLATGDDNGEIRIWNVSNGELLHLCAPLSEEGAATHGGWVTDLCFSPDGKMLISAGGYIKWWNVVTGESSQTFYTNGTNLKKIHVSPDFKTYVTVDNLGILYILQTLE

[21] = rise of 2N DNA cells, HeLa – IC50, dose response (AID 1117349); assay type: functional, cell-based
[22] = cytotoxicity toward Colo320 cells – cell-based, CellTiter-Glo luminescence, IC50, dose response (AID 1117334); assay type: functional; conditions: COLO 320
[23] = HCT116 cell viability decrease, GSK3B pretreatment – CellTiter-Glo, IC50, dose response (AID 1117339); assay type: functional; conditions: HCT-116
[24] = target: Intestinal-type alkaline phosphatase (Mus musculus, UniProt P24822); experiment: PubChem AID 488785; assay type: functional
[25] = SNU-C1 cell viability reduction, dose response, CellTiter-Glo luminescence (AID 1117323); assay type: functional, cell-based
[26] = Reduced DLD-1 viability, concentration-response, CellTiter-Glo luminescence (AID 1117352); assay type: functional
[27] = cytotoxicity toward HCT116 cells – cell-based, CellTiter-Glo luminescence, IC50, dose response (AID 1117332); assay type: functional; conditions: HCT-116
[28] = target: Intestinal-type alkaline phosphatase (Homo sapiens, UniProt P09923); experiment: inhibition of human intestinal alkaline phosphatase – biochemical, dose response (AID 488876); assay type: functional
[29] = RKO cell viability reduction, dose response, CellTiter-Glo luminescence (AID 1117322); assay type: functional
[30] = cytotoxicity toward HT-29 cells – cell-based, CellTiter-Glo luminescence, IC50, dose response (AID 1117330); assay type: functional
[31] = Counterscreen for AddAB inhibitors: absorbance-based bacterial cell-based high throughput dose response assay for inhibitors of bacterial viability. [Related pubchem assays (depositor defined):AID435030, AID449728, AID449731, AID488942, AID488955, AID488956]; assay type: functional

T4 sequence (P41145 whole entry): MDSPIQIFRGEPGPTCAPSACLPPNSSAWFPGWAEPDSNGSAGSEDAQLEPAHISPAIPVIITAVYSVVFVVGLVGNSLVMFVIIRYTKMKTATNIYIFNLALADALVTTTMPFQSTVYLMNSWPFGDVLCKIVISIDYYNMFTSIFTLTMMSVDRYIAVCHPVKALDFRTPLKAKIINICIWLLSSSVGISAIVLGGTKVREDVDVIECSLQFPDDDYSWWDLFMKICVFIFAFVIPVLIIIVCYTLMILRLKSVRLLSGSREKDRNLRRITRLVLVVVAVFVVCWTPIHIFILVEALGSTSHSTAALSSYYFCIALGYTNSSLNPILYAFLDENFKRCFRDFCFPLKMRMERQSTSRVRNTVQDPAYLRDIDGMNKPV
T3 sequence (P41143 whole entry): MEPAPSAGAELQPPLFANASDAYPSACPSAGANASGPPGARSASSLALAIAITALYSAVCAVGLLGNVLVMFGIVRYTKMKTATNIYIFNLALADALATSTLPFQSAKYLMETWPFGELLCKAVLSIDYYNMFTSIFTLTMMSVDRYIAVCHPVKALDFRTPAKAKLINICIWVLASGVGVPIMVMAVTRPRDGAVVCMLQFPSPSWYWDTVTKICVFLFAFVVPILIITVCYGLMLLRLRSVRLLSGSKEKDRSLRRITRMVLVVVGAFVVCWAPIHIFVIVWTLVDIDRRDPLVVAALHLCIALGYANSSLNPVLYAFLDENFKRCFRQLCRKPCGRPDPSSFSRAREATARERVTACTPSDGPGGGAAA
T1 sequence (Q8VNN2 whole entry): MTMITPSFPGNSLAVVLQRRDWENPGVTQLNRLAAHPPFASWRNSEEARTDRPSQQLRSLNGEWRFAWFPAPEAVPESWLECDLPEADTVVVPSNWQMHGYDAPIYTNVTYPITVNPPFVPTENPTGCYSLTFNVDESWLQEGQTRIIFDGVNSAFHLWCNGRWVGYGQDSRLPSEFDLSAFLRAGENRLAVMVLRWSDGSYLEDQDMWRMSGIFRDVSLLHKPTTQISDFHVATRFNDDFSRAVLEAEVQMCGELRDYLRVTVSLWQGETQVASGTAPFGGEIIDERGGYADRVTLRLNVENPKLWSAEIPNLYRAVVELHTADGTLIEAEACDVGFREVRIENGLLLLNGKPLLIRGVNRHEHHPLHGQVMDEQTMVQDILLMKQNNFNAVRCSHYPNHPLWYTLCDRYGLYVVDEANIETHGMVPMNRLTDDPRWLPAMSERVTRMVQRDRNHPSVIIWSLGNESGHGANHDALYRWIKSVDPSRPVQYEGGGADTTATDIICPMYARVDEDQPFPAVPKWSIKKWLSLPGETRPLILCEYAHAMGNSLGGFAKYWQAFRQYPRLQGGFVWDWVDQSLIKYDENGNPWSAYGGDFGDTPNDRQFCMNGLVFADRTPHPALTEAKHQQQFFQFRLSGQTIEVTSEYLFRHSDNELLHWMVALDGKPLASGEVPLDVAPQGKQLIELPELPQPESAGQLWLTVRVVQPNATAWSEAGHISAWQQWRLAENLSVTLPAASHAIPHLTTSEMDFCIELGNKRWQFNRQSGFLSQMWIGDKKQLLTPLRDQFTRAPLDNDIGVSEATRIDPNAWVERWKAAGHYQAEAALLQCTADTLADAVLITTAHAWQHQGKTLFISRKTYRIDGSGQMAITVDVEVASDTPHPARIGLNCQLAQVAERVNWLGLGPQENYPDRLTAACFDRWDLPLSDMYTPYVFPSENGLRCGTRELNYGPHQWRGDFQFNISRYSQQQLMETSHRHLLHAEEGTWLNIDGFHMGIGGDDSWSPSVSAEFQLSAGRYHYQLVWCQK
Chain of Nonstructural protein 1 (Q194T2 whole entry): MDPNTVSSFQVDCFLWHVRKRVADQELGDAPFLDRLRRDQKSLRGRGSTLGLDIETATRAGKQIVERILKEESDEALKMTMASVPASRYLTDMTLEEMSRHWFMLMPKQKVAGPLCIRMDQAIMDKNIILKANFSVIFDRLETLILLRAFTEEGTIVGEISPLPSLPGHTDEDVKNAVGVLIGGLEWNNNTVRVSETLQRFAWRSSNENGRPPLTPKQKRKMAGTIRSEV
Chain of Intestinal-type alkaline phosphatase (Homo sapiens, UniProt P09923) (P09923 whole entry): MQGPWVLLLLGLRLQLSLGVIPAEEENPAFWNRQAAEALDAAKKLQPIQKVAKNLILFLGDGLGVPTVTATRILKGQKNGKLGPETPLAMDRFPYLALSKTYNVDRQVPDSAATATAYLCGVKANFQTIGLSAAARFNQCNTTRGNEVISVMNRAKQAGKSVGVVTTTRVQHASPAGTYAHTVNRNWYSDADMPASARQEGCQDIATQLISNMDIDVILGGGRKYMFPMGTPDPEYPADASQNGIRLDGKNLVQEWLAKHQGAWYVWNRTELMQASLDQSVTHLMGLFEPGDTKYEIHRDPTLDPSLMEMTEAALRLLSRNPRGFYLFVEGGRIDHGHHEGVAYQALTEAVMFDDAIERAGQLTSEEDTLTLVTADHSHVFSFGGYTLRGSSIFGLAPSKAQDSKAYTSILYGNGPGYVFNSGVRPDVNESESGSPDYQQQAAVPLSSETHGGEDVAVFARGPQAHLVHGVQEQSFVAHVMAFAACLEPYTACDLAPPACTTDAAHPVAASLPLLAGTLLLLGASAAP
Chain of Intestinal-type alkaline phosphatase (Mus musculus, UniProt P24822) (P24822 whole entry): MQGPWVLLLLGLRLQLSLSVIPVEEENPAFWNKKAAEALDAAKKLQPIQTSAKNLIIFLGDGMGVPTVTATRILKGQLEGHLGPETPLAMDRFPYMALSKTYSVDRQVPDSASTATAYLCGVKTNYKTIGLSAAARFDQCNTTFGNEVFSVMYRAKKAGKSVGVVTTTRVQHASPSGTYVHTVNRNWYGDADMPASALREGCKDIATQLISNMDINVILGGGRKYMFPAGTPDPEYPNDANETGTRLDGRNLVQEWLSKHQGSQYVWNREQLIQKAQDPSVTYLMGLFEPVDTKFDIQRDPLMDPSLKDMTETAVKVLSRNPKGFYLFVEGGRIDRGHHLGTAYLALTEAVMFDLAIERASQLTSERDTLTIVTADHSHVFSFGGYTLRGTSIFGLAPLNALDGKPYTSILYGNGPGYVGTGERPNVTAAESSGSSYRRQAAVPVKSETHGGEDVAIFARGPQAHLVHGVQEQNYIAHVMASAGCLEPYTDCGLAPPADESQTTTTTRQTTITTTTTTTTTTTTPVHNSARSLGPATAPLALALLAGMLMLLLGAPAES
Chain of Mu-type opioid receptor (P35372 whole entry): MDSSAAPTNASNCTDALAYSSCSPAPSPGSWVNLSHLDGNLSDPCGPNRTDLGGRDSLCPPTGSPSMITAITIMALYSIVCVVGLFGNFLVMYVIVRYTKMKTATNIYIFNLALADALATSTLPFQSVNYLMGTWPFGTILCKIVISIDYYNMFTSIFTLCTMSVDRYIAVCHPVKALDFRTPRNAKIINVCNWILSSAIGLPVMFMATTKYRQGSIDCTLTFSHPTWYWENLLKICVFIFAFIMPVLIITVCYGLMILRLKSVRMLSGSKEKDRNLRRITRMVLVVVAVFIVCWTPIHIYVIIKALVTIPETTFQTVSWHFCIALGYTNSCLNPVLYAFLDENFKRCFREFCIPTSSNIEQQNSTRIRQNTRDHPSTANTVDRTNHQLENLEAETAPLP
Chain of FAD-linked sulfhydryl oxidase ALR (P55789 whole entry): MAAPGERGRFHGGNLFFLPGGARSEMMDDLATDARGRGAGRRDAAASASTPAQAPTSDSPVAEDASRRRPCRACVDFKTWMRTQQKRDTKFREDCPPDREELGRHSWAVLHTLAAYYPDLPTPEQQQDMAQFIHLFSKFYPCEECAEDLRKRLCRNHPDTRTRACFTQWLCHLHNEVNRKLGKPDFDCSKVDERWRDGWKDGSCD
Chain of E3 ubiquitin-protein ligase Mdm2 (Q00987 whole entry): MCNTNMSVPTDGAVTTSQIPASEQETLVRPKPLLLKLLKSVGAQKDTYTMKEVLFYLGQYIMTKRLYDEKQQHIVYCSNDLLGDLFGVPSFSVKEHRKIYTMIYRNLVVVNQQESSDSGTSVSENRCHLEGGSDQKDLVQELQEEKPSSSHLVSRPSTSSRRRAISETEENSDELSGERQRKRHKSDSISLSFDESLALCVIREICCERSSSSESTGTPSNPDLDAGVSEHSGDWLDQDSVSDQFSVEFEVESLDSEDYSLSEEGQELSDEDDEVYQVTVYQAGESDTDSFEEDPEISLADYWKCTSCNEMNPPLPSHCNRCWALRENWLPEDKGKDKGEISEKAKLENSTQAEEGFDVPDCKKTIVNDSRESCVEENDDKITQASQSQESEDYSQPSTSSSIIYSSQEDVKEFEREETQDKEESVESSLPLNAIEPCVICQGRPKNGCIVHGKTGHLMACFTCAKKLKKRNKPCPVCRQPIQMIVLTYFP

COCc1cc(O)nc(Nc2nc3ccc(C)cc3o2)n1
EC50 [1]: 2.11 µM (active) | EC50 (Beta-galactosidase [2]): > 31.5 µM (inactive) | IC50 [3]: 6.83 µM (active) | IC50 [4]: > 32 µM (inactive) | IC50 [5]: 7.12 µM (active) | EC50 [6]: 0.56 µM (active) | EC50 (Streptococcus): 7.89 µM (active) | EC50 (Mu-type opioid receptor): > 32 µM (inactive) | AC50 [7]: 103 µM (active) | EC50 (Beta-galactosidase [8]): > 40 µM (inactive) | EC50 [9]: 1.87 µM (active) | EC50 [10]: > 32 µM (inactive) | IC50 (Nonstructural protein 1): 16.1 µM (active) | IC50 [11]: > 32 µM | EC50 [12]: 4.89 µM (active) | IC50 [13]: > 20 µM (inactive) | EC50 [14]: 11.1 µM (active)

CCN1/C(=C/C=C/c2sc3ccccc3[n+]2CC)Sc2ccccc21
EC50 [1]: 2.54 µM (active) | EC50 [15]: 11.1 µM (active) | IC50 [16]: > 10 µM (inactive) | IC50 [17]: 74.8 µM (active) | IC50 [18]: 0.172 µM (active) | AC50 [19]: 0.522 µM (active) | IC50 (Exodeoxyribonuclease V): 80.9 µM (inactive) | IC50 [20]: 20.8 µM (active) | IC50 [21]: 8.51 µM (inactive) | EC50 (Streptococcus): 3 µM (active) | IC50 [22]: 0.562 µM (active) | IC50 [23]: 0.00875 µM (active) | IC50 [24]: 1.55 µM (active) | IC50 [25]: 0.0172 µM (active) | IC50 (Nonstructural protein 1): 9.73 µM (active) | IC50 [26]: 0.0148 µM (active) | IC50 [27]: 0.00957 µM (active) | IC50 [28]: > 100 µM (inactive) | IC50 [29]: 0.00898 µM (active) | IC50 [30]: 0.00838 µM (active) | IC50 [31]: 99.5 µM (inactive)
